Laboratory results as given in US9708336B2, “Metallo-beta-lactamase inhibitors” (priority 2014, dated 2017).
Read-outs that look alike come from different tables or passages of the source.

What was measured:
[1] = target: NDM-1 (Klebsiella pneumoniae, UniProt C7C422); test: biochemical; format: biochemical; details: read-out: NDM-1 IC50
[2] = target: IMP-1 (Serratia marcescens, UniProt P52699); test: biochemical; format: biochemical; details: read-out: IMP-1 IC50
[3] = target: VIM-1 (Pseudomonas aeruginosa (strain ATCC 15692 / DSM 22644 / CIP 104116 / JCM 14847 / LMG 12228 / 1C / PRS 101 / PAO1), UniProt A0A0F7KYQ8); test: Enzyme activity: determination of IC50, fluorescence assay with CCF2-FA substrate (VIM-1); format: biochemical
[4] = tested on: Escherichia coli expressing NDM-1 (CLB30005); test: Antibiotic potentiation activity: synergistic concentration (MITC95) with imipenem, OD600 growth; format: cell-based; details: for Escherichia coli MITC95: Escherichia coli expressing NDM-1 (CLB30005), 95% growth inhibition; for Escherichia coli expressing NDM-1 (CLB 30005) MITC95: concentration giving 95% inhibition of bacterial growth
Method in brief: (§1)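 In 1.1× CAMHB, clinical isolates from overnight plates were challenged with test compound alongside imipenem at an assay concentration of 4 μg/ml, sometimes 1 μg/ml. Plates sat covered at 35 °C for 22–24 h prior to spectrophotometric reading.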

[5] = tested on: Klebsiella pneumoniae expressing VIM-1 (IHMA599644); test: as above; format: cell-based; details: for Klebsiella pneumoniae MITC95: Klebsiella pneumoniae expressing VIM-1 (IHMA599644), 95% growth inhibition; for Klebsiella pneumoniae expressing VIM-1 (IHMA 599644) MITC95: concentration giving 95% inhibition of bacterial growth
Method in brief: as §1

[6] = tested on: Serratia marcescens expressing IMP-1 (CL5741); test: as above; format: cell-based; details: for Serratia marcescens MITC95: Serratia marcescens expressing IMP-1 (CL5741), 95% growth inhibition; for Serratia marcescens expressing IMP-1 (CL5741) MITC95: concentration giving 95% inhibition of bacterial growth
Method in brief: as §1

[7] = NDM-1 enzyme, CCF2-FA fluorescence assay
[8] = IMP-1 enzyme, CCF2-FA fluorescence assay
[9] = VIM-1 enzyme, CCF2-FA fluorescence assay, read-out: VIM-1 IC50
[10] = fluorescence assay with CCF2-FA substrate
[11] = fluorescence assay with CCF2-FA substrate, read-out: VIM-1 IC50

NDM-1, sequence (C7C422 whole entry, looked up, species assumed): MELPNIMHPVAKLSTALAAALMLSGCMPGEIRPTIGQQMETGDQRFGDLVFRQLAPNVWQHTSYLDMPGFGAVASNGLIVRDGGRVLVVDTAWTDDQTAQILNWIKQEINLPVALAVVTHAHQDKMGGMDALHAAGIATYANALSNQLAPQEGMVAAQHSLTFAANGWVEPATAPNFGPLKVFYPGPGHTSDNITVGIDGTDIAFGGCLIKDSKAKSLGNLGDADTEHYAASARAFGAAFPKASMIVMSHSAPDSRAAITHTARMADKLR
IMP-1, sequence (P52699 whole entry, looked up): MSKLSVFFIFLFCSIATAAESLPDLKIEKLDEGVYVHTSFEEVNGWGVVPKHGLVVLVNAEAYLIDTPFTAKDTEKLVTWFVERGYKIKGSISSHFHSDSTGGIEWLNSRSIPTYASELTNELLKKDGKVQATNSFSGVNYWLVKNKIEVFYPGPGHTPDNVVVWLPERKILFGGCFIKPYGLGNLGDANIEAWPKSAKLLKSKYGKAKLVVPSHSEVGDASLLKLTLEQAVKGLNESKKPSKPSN

SMILES: NS(=O)(=O)c1cccc(-c2ccc(N3CCNCC3)nc2)c1-c1nn[nH]n1 [Example 324, 3-(6-(piperazin-1-yl)pyridin-3-yl)-2-(2H-tetrazol-5-yl)benzenesulfonamide]
- IC50 [1, 7]: 105 nM
- IC50 [2, 8]: 1020 nM
- IC50 [3, 9]: 404 nM
- Escherichia coli MITC95 [4]: 13.28 µM
- Klebsiella pneumoniae MITC95 [5]: 37.5 µM
- Serratia marcescens MITC95 [6]: 32.81 µM

SMILES: NS(=O)(=O)c1cccc(-c2ccc(-n3nccn3)cc2)c1-c1nn[nH]n1 [Example 5, 2-(2H-tetrazol-5-yl)-4′-(2H-1,2,3-triazol-2-yl)biphenyl-3-sulfonamide]
- IC50 [1, 10]: 3.44 nM
- IC50 [2, 10]: 72.3 nM
- IC50 [3, 11]: 56.5 nM
- Escherichia coli expressing NDM-1 (CLB 30005) MITC95 [4]: 0.7813 µM
- Klebsiella pneumoniae expressing VIM-1 (IHMA 599644) MITC95 [5]: >200 µM
- Serratia marcescens expressing IMP-1 (CL5741) MITC95 [6]: 12.5 µM

SMILES: NC(=O)c1cccc(-c2cccc(S(N)(=O)=O)c2-c2nn[nH]n2)c1 [Example 81, 3′-sulfamoyl-2′-(2H-tetrazol-5-yl)biphenyl-3-carboxamide]
- IC50 [1, 10]: 34.6 nM
- IC50 [2, 10]: 571 nM
- IC50 [3, 11]: 255 nM
- Escherichia coli expressing NDM-1 (CLB 30005) MITC95 [4]: 0.9766 µM
- Klebsiella pneumoniae expressing VIM-1 (IHMA 599644) MITC95 [5]: 37.5 µM
- Serratia marcescens expressing IMP-1 (CL5741) MITC95 [6]: 37.5 µM

SMILES: NCCc1ccc(-c2cccc(S(N)(=O)=O)c2-c2nnn[nH]2)cc1 [Example 300, 4′-(2-aminoethyl)-2-(1H-tetrazol-5-yl)-[1,1′-biphenyl]-3-sulfonamide]
- IC50 [1, 7]: 37.2 nM
- IC50 [2, 8]: 373 nM
- IC50 [3, 9]: 31.5 nM
- Escherichia coli MITC95 [4]: 1.172 µM
- Klebsiella pneumoniae MITC95 [5]: 9.375 µM
- Serratia marcescens MITC95 [6]: 12.5 µM

SMILES: CC(C)n1nccc1-c1cccc(S(N)(=O)=O)c1-c1nn[nH]n1 [Example 106, 3-[1-(1-methylethyl)-1H-pyrazol-5-yl]-2-(2H-tetrazol-5-yl)benzenesulfonamide]
- IC50 [1, 10]: 9.63 nM
- IC50 [2, 10]: 1800 nM
- IC50 [3, 11]: 962 nM
- Escherichia coli expressing NDM-1 (CLB 30005) MITC95 [4]: 3.906 µM
- Klebsiella pneumoniae expressing VIM-1 (IHMA 599644) MITC95 [5]: 200 µM
- Serratia marcescens expressing IMP-1 (CL5741) MITC95 [6]: 62.5 µM

SMILES: NS(=O)(=O)c1cccc(-c2ccccn2)c1-c1nn[nH]n1 [Example 93, 3-pyridin-2-yl-2-(2H-tetrazol-5-yl)benzenesulfonamide]
- IC50 [1, 10]: 3.17 nM
- IC50 [2, 10]: 331 nM
- IC50 [3, 11]: 89.8 nM
- Escherichia coli expressing NDM-1 (CLB 30005) MITC95 [4]: 0.7813 µM
- Klebsiella pneumoniae expressing VIM-1 (IHMA 599644) MITC95 [5]: 25 µM

SMILES: NS(=O)(=O)c1cncc(-c2ccc(CO)cc2)c1-c1nnn[nH]1 [Example 189, 5-(4-(Hydroxymethyl)phenyl)-4-(1H-tetrazol-5-yl)pyridine-3-sulfonamide]
- IC50 [1, 10]: 23.2 nM
- IC50 [2, 10]: 704 nM
- IC50 ([3]; VIM-1 IC50, fluorescence assay with CCF2-FA substrate): 685 nM
- Escherichia coli expressing NDM-1 (CLB 30005) MITC95 [4]: 1.563 µM
- Klebsiella pneumoniae expressing VIM-1 (IHMA 599644) MITC95 [5]: 100 µM

SMILES: NS(=O)(=O)c1ccc(O)cc1-c1nn[nH]n1 [Example 254]
- IC50 [3, 9]: 20000 nM
- Escherichia coli MITC95 [4]: 3.125 µM
- Klebsiella pneumoniae MITC95 [5]: >200 µM
- Serratia marcescens MITC95 [6]: >200 µM

SMILES: NS(=O)(=O)c1cccc(C#CCN2CCC(=O)CC2)c1-c1nn[nH]n1 [Example 146, 3-[3-(4-oxopiperidin-1-yl)prop-1-yn-1-yl]-2-(2H-tetrazol-5-yl)benzenesulfonamide]
- IC50 [1, 10]: 65.5 nM
- IC50 [2, 10]: 766 nM
- Escherichia coli expressing NDM-1 (CLB 30005) MITC95 [4]: 1.172 µM
- Klebsiella pneumoniae expressing VIM-1 (IHMA 599644) MITC95 [5]: >200 µM
- Serratia marcescens expressing IMP-1 (CL5741) MITC95 [6]: 50 µM

SMILES: NS(=O)(=O)c1ccc2ccccc2c1-c1nnn[nH]1 [Example 399, 1-(1H-tetrazol-5-yl)naphthalene-2-sulfonamide]
- IC50 [1, 7]: 117 nM
- IC50 [2, 8]: 15100 nM
- Escherichia coli MITC95 [4]: 3.906 µM
- Klebsiella pneumoniae MITC95 [5]: >200 µM
- Serratia marcescens MITC95 [6]: >200 µM
